{
  "source": "paper PMC10108821",
  "about": "“Three tyrosine kinase inhibitors cause cardiotoxicity by inducing endoplasmic reticulum stress and inflammation in cardiomyocytes” (BMC Medicine, 2023)",
  "key": {"[1]": {"tested_on": "Sprague-Dawley rats", "assay": "Rat gavage cardiotoxicity model: survival, heart and body weight", "details": "day 7; ponatinib 15 mg/kg, sorafenib 50 mg/kg gavage once daily", "protocol": "(§2) All experiments were performed in accordance with relevant guidelines and regulations approved by the Institutional Animal Care and Use Committee (IACUC) at Peking University Health Science Center. Sprague-Dawley rats (170-200g) were purchased from Beijing Vital River Laboratory Animal Technology. Forty-eight male rats were randomly divided into six groups, with 8 animals per group. […] The gavage was done daily starting at 10am. At the end of the experiments, rats were euthanized by CO2 about 5~6 hours after the last gavage, and then hearts were harvested for further study. Left ventricular muscle was dissected and divided into 3 parts with similar size, one of which was used for RNA extraction and qRT-PCR."}, "[2]": {"tested_on": "NRCMs", "assay": "ROS by H2DCFDA staining and flow cytometry", "details": "3 h; 10 µM afatinib, 10 µM sorafenib, 5.62 µM ponatinib", "method": "(§1) For ROS assessment, cells were washed with PBS once and stained with 10μM H2DCFHDA (MCE) in phenol red-free DMEM (Procell) in a humid incubator with 5% CO2 at 37°C for 30 minutes. Cells were washed with PBS twice and dissociated to single cells before flow cytometry analysis at the FITC channel. For lipid peroxidation measurement, cells were washed with PBS once and stained with 2μM C11-bodipy^581/591 (Cayman) in phenol red-free DMEM (Procell) in a humid incubator with 5% CO2 at 37°C for 30 minutes. Cells were washed with PBS twice and dissociated to single cells before flow cytometry analysis at both the FITC and the PE channels. Fluorescence of the oxidized C11-bodipy were acquired through the FITC channel (Ex/Em=488/520nm) and that of the non-oxidized C11-bodipy through the PE channel (Ex/Em=555/624nm)."}, "[3]": {"tested_on": "rat left ventricles", "assay": "Rat gavage cardiotoxicity model: qRT-PCR in left ventricles", "assay_type": "in vivo", "details": "ponatinib 15 mg/kg, sorafenib 50 mg/kg gavage, 3 or 7 days", "protocol": "as §2\nRNA was isolated based on a standard protocol using TRIzol reagent (Vazyme). TRIzol (1ml per 1 well of a 6-well plate) was used to lyse cells and chloroform was added for RNA separation. Samples were shaked vigorously by hand for 15 seconds and incubated at room temperature for 2-3 minutes. RNA was present in the aqueous phase after centrifuge at 12000 x g for 15 minutes. Isopropyl alcohol was mixed to precipitate RNA from the aqueous phase. […] 1 μg total RNA was used for cDNA synthesis using a reverse transcription kit (Bioman). We then measured expression of genes of interest with SYBRR Green qPCR Mix (Bioman) using Applied Biosystems 7500 Quantitative PCR Instrument. […]"}, "[4]": {"tested_on": "Cor.4U hiPSC-CMs", "parameters": "method as in GSE114686", "details": "ref GSE114686, cited from earlier work"}, "[5]": {"tested_on": "Phospho-eIF2α, XBP1s, ATF6 (cleaved)", "assay": "Western blot of ER stress effectors in NRCMs", "assay_type": "cell-based, rat", "protocol": "Cells were homogenized in the RIPA lysis buffer (Applygen) containing protease and phosphatase inhibitor cocktails (Bimake). The extract was spun at 12,000xg for 20min at 4°C. Total protein was measured by BCA (Thermofisher) and resolved by sodium dodecyl sulfate–polyacrylamide gel electrophoresis (SDS-PAGE). Proteins were blotted to polyvinylidene difluoride membranes (Amersham). Blots were blocked with non-fat milk (BBI Life Sciences) and incubated with antibodies against ATF6 (proteintech), phospho-eIF2α (ABclonol), XBP1 (ABclonol) and GAPDH (proteintech). Goat anti-rabbit IgG, goat anti-mouse IgG were incubated with the blots for 1 hour at room temperature. After 3 washes with 1xTBST (50 mM Tris-Cl, 150 mM NaCl, 0.1% Tween 20, pH 7.5), the blots were developed with the ECL Plus Kit (Absin). Relative protein expression was quantified by optical density and normalized to GAPDH."}, "[6]": {"tested_on": "ER stress genes in NRCMs", "assay": "qRT-PCR of ER stress genes in NRCMs", "assay_type": "cell-based, rat", "details": "afatinib 5.62 µM, sorafenib 3.16 μM, ponatinib 1.78 μM"}, "[7]": {"tested_on": "Cor.4U hiPSC-CMs", "assay": "ATP level (CellTiter-Glo) in hiPSC-CMs", "assay_type": "cell-based, human"}, "[8]": {"tested_on": "NRCMs", "assay": "Mitochondrial membrane potential by TMRE staining", "assay_type": "cell-based, rat", "details": "24 h of treatment", "description": "Fig S3 Mitochondrial membrane potential changes in response to TKIs. (A) Raw images of TMRE staining in NRCMs treated with different drugs. (B) Fold changes in mitochondrial membrane potential at different treatments."}, "[9]": {"tested_on": "NRCMs", "assay": "Calcium staining with Calbryte 520 AM", "assay_type": "cell-based, rat", "details": "0.5 and 1 h; 10 µM afatinib, 10 µM sorafenib, 5.62 µM ponatinib"}, "[10]": {"tested_on": "NRCMs", "assay": "Lipid peroxidation by C11-bodipy 581/591 and flow cytometry", "method": "as §1"}, "[11]": {"tested_on": "TNNT2 protein in NRCMs", "assay": "TNNT2 immunofluorescence", "assay_type": "cell-based, rat", "details": "24 h; 10 µM afatinib, 10 µM sorafenib, 5.62 µM ponatinib", "method": "Cells cultured in multi-well plates were fixed with 4% paraformaldehyde (Sigma) for 30 minutes at room temperature, washed 3 times with PBS, and permeabilized with 0.2% Tritonx100 (Applygen) for 15 minutes. Then, cells were blocked with 5% normal goat serum (Bioss) for 1-hr at room temperature and probed with primary antibodies against TNNT2 (proteintech) or NF-κB (CST) overnight at 4°C. Secondary antibodies (Jackson Immuno Research Laboratories, Inc.) and 0.4ug/mL DAPI (Coolaber) were applied at room temperature for 1 hour. Immunofluorescence pictures were taken by ImageXpress Micro Confocal-AWES (Molecular Devices)."}, "[12]": {"details": "Sprague-Dawley, rat, 24 h, 10 µM"}},
  "note": "Read-outs that look alike come from different tables or passages of the source.",
  "data": [
    {"compound": "CNC(=O)c1cc(Oc2ccc(NC(=O)Nc3ccc(Cl)c(C(F)(F)F)c3)cc2)ccn1", "note": "[sorafenib]", "values": [
      {"measurement": "heart or body weight", "setting": "[1]", "value": "not changed"},
      {"measurement": "increase in percent of ROS-high cells", "setting": "[2]", "value": 16.2, "unit": "%"},
      {"measurement": "gene expression of Anp", "setting": "[3]", "value": "did not induce a significant change"},
      {"measurement": "CHAC1 logFC", "setting": "[4]; Sorafenib 3.16 µM 168 hours", "value": 3.62},
      {"measurement": "DDIT3 logFC", "setting": "[4]; Sorafenib 3.16 µM 168 hours", "value": 4.28},
      {"measurement": "DNAJB9 logFC", "setting": "[4]; Sorafenib 3.16 µM 168 hours", "value": 1},
      {"measurement": "TRIB3 logFC", "setting": "[4]; Sorafenib 3.16 µM 168 hours", "value": 5.51},
      {"measurement": "XBP1 logFC", "setting": "[4]; Sorafenib 3.16 µM 168 hours", "value": 1.42},
      {"measurement": "CHAC1 logFC", "setting": "[4]; Sorafenib 10 µM 24 hours", "value": 4.55},
      {"measurement": "DDIT3 logFC", "setting": "[4]; Sorafenib 10 µM 24 hours", "value": 4.73},
      {"measurement": "DNAJB9 logFC", "setting": "[4]; Sorafenib 10 µM 24 hours", "value": 1.43},
      {"measurement": "TRIB3 logFC", "setting": "[4]; Sorafenib 10 µM 24 hours", "value": 5.56},
      {"measurement": "XBP1 logFC", "setting": "[4]; Sorafenib 10 µM 24 hours", "value": 1.79},
      {"measurement": "duration of activated eIF2α phosphorylation", "setting": "[5]", "value": 6, "unit": "h"},
      {"measurement": "temporal activation of ER stress genes, 72 versus 24 h", "setting": "[6]", "value": "most gene targets of ER stress were downregulated over time"},
      {"measurement": "effect on ATP levels", "setting": "[7]; 0.32 to 10 µM, day 1 to day 5", "value": "slight increase in the ATP level at day 1, but decrease at day 5"},
      {"measurement": "EC50 (ATP) compared with maximal plasma concentration (Cmax)", "setting": "[7]; day 5", "value": "lower than or similar to their maximal plasma concentrations (Cmax)"},
      {"measurement": "mitochondrial membrane potential", "setting": "[8]", "value": "decreased the mitochondrial membrane potential significantly"},
      {"measurement": "cytosolic calcium concentration", "setting": "[9]", "value": "significant cytosolic overload of Ca^2+"},
      {"measurement": "change in percent of cells with high lipid peroxidation", "setting": "[10]", "value": "increased slightly"},
      {"measurement": "level of lipid peroxidation, TKI alone", "setting": "[10]; [12]", "value": 94.6, "unit": "%"},
      {"measurement": "level of lipid peroxidation, TKI with trolox", "setting": "[10]; [12]", "value": 88, "unit": "%"},
      {"measurement": "TNNT2 protein (cardiac Troponin T2)", "setting": "[11]", "value": "had the most effect"}
    ]}
  ]
}
